From PubChem BioAssay (NCI)
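Briefly, cells in 96-well plates were exposed to five compound concentrations for 48 h, and endpoints were estimated by linear interpolation. The concentration for 50% growth inhibition is given as GI50. The concentration for full growth arrest is given as TGI.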

How the values were obtained:
Assay in all cases: growth of human tumour cells (NCI), 48 h
NCI/ADR-RES ovarian = tested on: NCI/ADR-RES ovarian
CAKI-1 renal = tested on: CAKI-1 renal
LOX IMVI melanoma = tested on: LOX IMVI melanoma
COLO 205 colon = tested on: COLO 205 colon
MDA-MB-231 breast = tested on: MDA-MB-231 breast
RPMI-8226 leukemia = tested on: RPMI-8226 leukemia
OVCAR-3 ovarian = tested on: OVCAR-3 ovarian
SF-295 CNS = tested on: SF-295 CNS
HCT-15 colon = tested on: HCT-15 colon
MCF7 breast = tested on: MCF7 breast

Row | SMILES | GI50 (NCI/ADR-RES ovarian) | TGI (NCI/ADR-RES ovarian) | GI50 (CAKI-1 renal) | TGI (CAKI-1 renal) | GI50 (LOX IMVI melanoma) | TGI (LOX IMVI melanoma) | GI50 (COLO 205 colon) | TGI (COLO 205 colon) | GI50 (MDA-MB-231 breast) | TGI (MDA-MB-231 breast) | GI50 (RPMI-8226 leukemia) | TGI (RPMI-8226 leukemia) | GI50 (OVCAR-3 ovarian) | TGI (OVCAR-3 ovarian) | GI50 (SF-295 CNS) | TGI (SF-295 CNS) | GI50 (HCT-15 colon) | TGI (HCT-15 colon) | GI50 (MCF7 breast) | TGI (MCF7 breast)
1 | CC12OC(CC(O)C1O)n1c3ccccc3c3c4c(c5c6ccccc6n2c5c31)C(=O)N(CCN1CCOCC1)C4=O (stereo not given) | 1820 nM | 8310 nM | 1020 nM | 5430 nM | 425 nM | 1290 nM | 606 nM | 4510 nM | 3040 nM | 11500 nM | 1550 nM | 9870 nM | 1550 nM | 7330 nM | 598 nM | 3170 nM | 1260 nM | 8210 nM | 242 nM | 8020 nM
2 | CN1CCN(CCCNC(=O)c2c3c(n4ccccc24)C(=O)c2ncccc2C3=O)CC1 | 12000 nM | 64600 nM | 6760 nM | 46300 nM | 715 nM | 3360 nM | 563 nM | 1670 nM | 1000 nM | > 80000 nM | 3020 nM | > 24400 nM | 400 nM | 3530 nM | 1250 nM | 13100 nM | 1250 nM | 8470 nM | 612 nM | 2620 nM
3 | CCN(CC)CCNC(=O)c1cccc2c1-c1ccccc1C2=O | > 100000 nM | > 100000 nM | > 100000 nM | > 100000 nM | > 100000 nM | > 100000 nM | > 100000 nM | > 100000 nM | > 100000 nM | > 100000 nM | 66300 nM | > 100000 nM | > 100000 nM | > 100000 nM | > 100000 nM | > 100000 nM | > 100000 nM | > 100000 nM | > 100000 nM | > 100000 nM
4 | COc1cccc2c1C(=O)c1c(O)c3c(c(O)c1C2=O)C[C@@](O)(/C(CO)=N/NC(=O)CCCCCN1C(=O)C=CC1=O)C[C@@H]3O[C@H]1C[C@H](N)[C@H](O)[C@H](C)O1 | > 100000 nM | > 100000 nM | 3600 nM | 56400 nM | 301 nM | 3950 nM | 800 nM | 10200 nM | 1960 nM | 44000 nM | 320 nM | > 28200 nM | 1890 nM | > 64400 nM | 404 nM | 5560 nM | 7940 nM | > 100000 nM | 147 nM | > 100000 nM
5 | Cc1nc2sc(C(=O)Nc3cccc(Br)c3C)c(N)c2cc1C(O)c1ccccc1 (stereo not given) | 32 nM | 12800 nM | 60.1 nM | 6630 nM | 49.6 nM | 6930 nM | 46.4 nM | 1070 nM | 47.3 nM | 5660 nM | 45.5 nM | 7080 nM | 32 nM | 1020 nM | 33.5 nM | 6640 nM | 34.8 nM | 11500 nM | 37.3 nM | 13100 nM
6 | COc1cc2c(cc1OC)C(C(CCCCCC(CCC(C)C)C1NCCc3cc(OC)c(OC)cc31)CCC(C)C)NCC2 (stereo not given) | 1440 nM | 2940 nM | 1550 nM | 3190 nM | 194 nM | 408 nM | 225 nM | 464 nM | 791 nM | 2410 nM | 327 nM | 974 nM | 1610 nM | 3120 nM | 1640 nM | 3430 nM | 274 nM | 851 nM | 651 nM | 1910 nM
